Bounds are passed on as bounds.

The subject of experiment [1] is IL-6 levels in human whole blood stimulated with a TLR2 agonist (lipoteichoic acid). Nature of the experiment: IRAK4 Whole Blood Assay. The experiment is classed as cell-based. Particulars: 10 μg/mL lipoteichoic acid for 5 hours, IL-6 readout. As for the experimental part:
Human whole blood containing the anti-coagulant ACD-A was plated in 384-well plate (25 μL/well) and incubated with compounds for 60 minutes at 37° C. in a 5% CO2 incubator. The blood was stimulated with a TLR2 agonist, 10 μg/mL final concentration of lipoteichoic acid (Invivogen, San Diego, CA) in 25 μL RPMI (Gibco) for 5 hours in a 5% CO2 incubator. At the end of the incubation, plates were centrifuged at 2300 rpm for 5 minutes. Supernatants were harvested and analyzed for IL-6 levels by Flow Cytometry beads assay (BD Biosciences, San Jose, CA).

The next experiment concerns the target IRAK4 (Homo sapiens (Human), UniProt Q9NWZ3). Nature of the experiment: IRAK4 Inhibition Assay. The experiment is classed as biochemical. Particulars: ATP 500 μM; IRAK4 0.6 nM; 60 min at room temperature. The method, then: The assays were performed in U-bottom 384-well plates. The final assay volume was 30 μL prepared from 15 μL additions of enzyme and substrates (fluoresceinated peptide and ATP) and test compounds in assay buffer (20 mM HEPES pH 7.2, 10 mM MgCl2, 0.015% Brij 35 and 4 mM DTT). The reaction was initiated by the combination of IRAK4 with substrates and test compounds. The reaction mixture was incubated at room temperature for 60 min. and terminated by adding 45 μL of 35 mM EDTA to each sample. The reaction mixture was analyzed on the Caliper LABCHIP® 3000 (Caliper, Hopkinton, MA) by electrophoretic separation of the fluorescent substrate and phosphorylated product. Inhibition data were calculated by comparison to no enzyme control reactions for 100% inhibition and vehicle-only reactions for 0% inhibition. The final concentrations of reagents in the assays are ATP, 500 μM; FL-IPTSPITTTYFFFKKK peptide 1.5 μM; IRAK4, 0.6 nM; and DMSO, 1.6%.

IRAK4, sequence (Q9NWZ3 whole entry, species assumed): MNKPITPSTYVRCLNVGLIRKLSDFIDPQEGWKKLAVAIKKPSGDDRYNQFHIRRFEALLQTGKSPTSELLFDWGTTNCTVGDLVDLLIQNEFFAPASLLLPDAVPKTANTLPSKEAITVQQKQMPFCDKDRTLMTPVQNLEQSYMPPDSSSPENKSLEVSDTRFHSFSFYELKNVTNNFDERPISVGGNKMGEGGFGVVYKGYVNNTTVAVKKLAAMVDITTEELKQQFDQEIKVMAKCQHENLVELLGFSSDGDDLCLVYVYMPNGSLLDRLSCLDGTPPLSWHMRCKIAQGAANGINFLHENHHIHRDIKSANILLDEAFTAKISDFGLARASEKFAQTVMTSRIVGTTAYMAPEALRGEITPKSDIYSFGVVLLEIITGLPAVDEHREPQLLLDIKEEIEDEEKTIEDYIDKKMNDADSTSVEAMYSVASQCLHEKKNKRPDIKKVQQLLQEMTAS

Regarding `CC(C)Nc1c(-c2cn(CCCO)nn2)cnc2sc(-c3ccc(=O)[nH]c3)cc12` [Example 80, 5-(5-(1-(3-hydroxypropyl)-1H-1,2,3-triazol-4-yl)-4-(isopropylamino)thieno[2,3-b]pyridin-2-yl) pyridin-2(1H)-one], in experiment [1], the 50% effective concentration (EC50) turned out to be 420 nM. Further, at IRAK4, the IC50 is 5.2 nM.

In experiment [1], `CC(C)Nc1c(C(=O)NC[C@@H](F)C(C)(C)O)cnc2sc(-c3cn[nH]c3)cc12` [Example 21, (R)-N-(2-fluoro-3-hydroxy-3-methylbutyl)-4-(isopropylamino)-2-(1H-pyrazol-4-yl)thieno[2,3-b]pyridine-5-carboxamide] showed an EC50 above 20000 nM. For the same compound, the 50% inhibitory concentration (IC50) at IRAK4 is 2.4 nM.

The compound `CC(C)Nc1c(C(=O)NC[C@@H](F)C(C)(C)O)cnc2sc(-c3ccnnc3)cc12` [Example 32, (R)-N-(2-fluoro-3-hydroxy-3-methylbutyl)-4-(isopropylamino)-2-(pyridazin-4-yl)thieno[2,3-b]pyridine-5-carboxamide] returned a concentration giving a half-maximal response (EC50) in experiment [1] above 20000 nM. Besides, the half-inhibitory concentration (IC50) on IRAK4 worked out at 10.3 nM.

In experiment [1], `CC(C)Nc1c(C(=O)N[C@H]2CC[C@H](N)CC2)cnc2sc(-c3cncs3)cc12` [Example 38, N-((1r,4r)-4-aminocyclohexyl)-4-(isopropylamino)-2-(thiazol-5-yl)thieno[2,3-b]pyridine-5-carboxamide] registered a 50% effective concentration (EC50) of 5040 nM. The concentration for half-maximal inhibition (IC50) on IRAK4 is 12.3 nM.

In turn, `CC(C)Nc1c(C(=O)NC[C@@H](F)C(C)(C)O)cnc2sc(-c3cnc(N)s3)cc12` [Example 56, (R)-2-(2-aminothiazol-5-yl)-N-(2-fluoro-3-hydroxy-3-methylbutyl)-4-(isopropylamino)thieno[2,3-b]pyridine-5-carboxamide] returned an EC50 in experiment [1] above 10000 nM. Besides, the half-maximal inhibitory concentration (IC50) on IRAK4 turned out to be 6 nM.

In experiment [1], `CC(C)Nc1c(C(=O)NC[C@@H](F)C(C)(C)O)cnc2sc(-c3ccc(=O)[nH]c3)cc12` [Example 59, (R)-N-(2-fluoro-3-hydroxy-3-methylbutyl)-4-(isopropylamino)-2-(6-oxo-1,6-dihydropyridin-3-yl)thieno[2,3-b]pyridine-5-carboxamide] returned a half-maximal effective concentration (EC50) of 190 nM. The half-inhibitory concentration (IC50) at IRAK4 is 3.8 nM.

In experiment [1], `Cc1ncc(-c2cc3c(NC(C)C)c(C(=O)NC[C@@H](F)C(C)(C)O)cnc3s2)s1` [Example 57, (R)-N-(2-fluoro-3-hydroxy-3-methylbutyl)-4-(isopropylamino)-2-(2-methylthiazol-5-yl)thieno[2,3-b]pyridine-5-carboxamide] showed an EC50 of 3540 nM. At IRAK4, the 50% inhibitory concentration (IC50) is 8.2 nM.

Turning to `CC(C)Nc1c(C(=O)NC[C@@H](F)C(C)(C)O)cnc2sc(-c3ccc(C#N)nc3)cc12` [Example 25, (R)-2-(6-cyanopyridin-3-yl)-N-(2-fluoro-3-hydroxy-3-methylbutyl)-4-(isopropylamino) thieno[2,3-b]pyridine-5-carboxamide], the EC50 in experiment [1] was above 20000 nM. In addition, at IRAK4, the IC50 turned out to be 18.9 nM.

Compound `CC(C)Nc1c(C(=O)NC[C@@H](F)C(C)(C)O)cnc2sc(-c3cccc(C#N)c3)cc12` [Example 24, (R)-2-(3-cyanophenyl)-N-(2-fluoro-3-hydroxy-3-methylbutyl)-4-(isopropylamino)thieno[2,3-b]pyridine-5-carboxamide] gave a 50% effective concentration (EC50) in experiment [1] above 20000 nM. At IRAK4, the IC50 amounted to 16.8 nM.

Compound `CC(C)Nc1c(C(=O)NCCN2CCS(=O)(=O)CC2)cnc2sc(-c3cncs3)cc12` [Example 68, N-(2-(1,1-dioxidothiomorpholino)ethyl)-4-(isopropylamino)-2-(thiazol-5-yl)thieno[2,3-b]pyridine-5-carboxamide] had an EC50 in experiment [1] above 20000 nM. At IRAK4, the IC50 is 10.9 nM.

With `CC(C)Nc1c(C(=O)NCc2ncn[nH]2)cnc2sc(-c3cncs3)cc12` [Example 42, N-((1H-1,2,4-triazol-5-yl)methyl)-4-(isopropylamino)-2-(thiazol-5-yl)thieno[2,3-b]pyridine-5-carboxamide], the EC50 in experiment [1] was above 20000 nM. The IC50 on IRAK4 is 12.2 nM.

As to `CC(C)Nc1c(-c2cn(CCCO)nn2)cnc2sc(-c3cncs3)cc12` [Example 79, 3-(4-(4-(isopropylamino)-2-(thiazol-5-yl)thieno[2,3-b]pyridin-5-yl)-1H-1,2,3-triazol-1-yl)propan-1-ol], the EC50 in experiment [1] is above 10000 nM. For the same compound, at IRAK4, the IC50 stood at 2.3 nM.

Turning to `CC(C)Nc1c(C(=O)NCCC2(O)CC(F)(F)C2)cnc2sc(-c3cncs3)cc12` [Example 63, N-(2-(3,3-difluoro-1-hydroxycyclobutyl)ethyl)-4-(isopropylamino)-2-(thiazol-5-yl)thieno[2,3-b]pyridine-5-carboxamide], the half-maximal effective concentration (EC50) in experiment [1] is 2340 nM. Besides, the IC50 on IRAK4 was found to be 5.4 nM.

`CC(C)Nc1c(C(=O)NC[C@@H](F)C(C)(C)O)cnc2sc(-c3cccnc3)cc12` [Example 22, (R)-N-(2-fluoro-3-hydroxy-3-methylbutyl)-4-(isopropylamino)-2-(pyridin-3-yl)thieno[2,3-b]pyridine-5-carboxamide]: the concentration giving a half-maximal response (EC50) in experiment [1] worked out at 3420 nM. The IC50 at IRAK4 was found to be 5.3 nM.

As to `COC(=O)N[C@H]1CC[C@H](NC(=O)c2cnc3sc(-c4cncs4)cc3c2NC(C)C)CC1` [Example 50, methyl ((1r,4r)-4-(4-(isopropylamino)-2-(thiazol-5-yl)thieno[2,3-b]pyridine-5-carboxamido)cyclohexyl)carbamate], the EC50 in experiment [1] stood at 5310 nM. Also, the 50% inhibitory concentration (IC50) at IRAK4 was 9.3 nM.

As for `CC(C)Nc1c(C(=O)NCCc2cccnc2)cnc2sc(-c3ccc(=O)[nH]c3)cc12` [Example 72, 4-(isopropylamino)-2-(6-oxo-1,6-dihydropyridin-3-yl)-N-(2-(pyridin-3-yl)ethyl)thieno[2,3-b]pyridine-5-carboxamide], the concentration for a half-maximal effect (EC50) in experiment [1] is above 20000 nM. Further, on IRAK4, the IC50 was found to be 6.7 nM.

Take `CC(O)CCNC(=O)c1cnc2sc(-c3cncs3)cc2c1NC(C)C` (stereo not drawn) [Example 60, N-(3-hydroxybutyl)-4-(isopropylamino)-2-(thiazol-5-yl)thieno[2,3-b]pyridine-5-carboxamide]: the half-maximal effective concentration (EC50) in experiment [1] is above 10000 nM. Besides, the IC50 on IRAK4 was determined as 10.8 nM.

Compound `CC(C)Nc1c(C(=O)NCCc2ccncc2)cnc2sc(-c3ccc(=O)[nH]c3)cc12` [Example 71, 4-(isopropylamino)-2-(6-oxo-1,6-dihydropyridin-3-yl)-N-(2-(pyridin-4-yl)ethyl)thieno[2,3-b]pyridine-5-carboxamide] came in with an EC50 in experiment [1] above 20000 nM. Further, the half-maximal inhibitory concentration (IC50) at IRAK4 was 5.2 nM.

`CC(C)Nc1c(C(=O)NC[C@@H](F)C(C)(C)O)cnc2sc(-c3ccncc3)cc12` [Example 23, (R)-N-(2-fluoro-3-hydroxy-3-methylbutyl)-4-(isopropylamino)-2-(pyridin-4-yl) thieno[2,3-b]pyridine-5-carboxamide] registered an EC50 in experiment [1] of 4250 nM. Further, at IRAK4, the half-inhibitory concentration (IC50) amounted to 4.8 nM.

In experiment [1], `CC(C)CCNC(=O)c1cnc2sc(-c3cncs3)cc2c1NC(C)C` [Example 30, N-isopentyl-4-(isopropylamino)-2-(thiazol-5-yl)thieno[2,3-b]pyridine-5-carboxamide] gave a concentration giving a half-maximal response (EC50) above 20000 nM. Further, the IC50 at IRAK4 was 7.5 nM.

`CCOCCNC(=O)c1cnc2sc(-c3cncs3)cc2c1NC(C)C` [Example 43, N-(2-ethoxyethyl)-4-(isopropylamino)-2-(thiazol-5-yl)thieno[2,3-b]pyridine-5-carboxamide] had an EC50 in experiment [1] above 20000 nM. At IRAK4, the half-maximal inhibitory concentration (IC50) came out at 17.1 nM.

The record behind these values is patent publication US12304916B2, “Thienopyridinyl and thiazolopyridinyl compounds useful as IRAK4 inhibitors” (BRISTOL-MYERS SQUIBB COMPANY, priority 2019, dated 2025).
